Data: patent US4417052A, “Phenyl-lower-alkyl piperidines and pyrrolidines” (Sterling Drug Inc., priority 1981, dated 1983)
Counter-ions that a name gives are not always drawn.

Assays:
[1] = test system: carrageenin-induced foot edema; assay: inhibition of carrageenin-induced foot edema test (C.E.); assay type: in vivo; details: oral; for inhibition in vivo at 4 µmol/kg: dose 0.004 millimoles/kg; for inhibition in vivo at 4 µmol/kg / inhibition in vivo at 20 µmol/kg / inhibition in vivo at 80 µmol/kg / inhibition in vivo at 324 µmol/kg: read-out: C.E. percent inhibition; for inhibition in vivo at 20 µmol/kg: dose 0.02 millimoles/kg; for C.E. percent inhibition (Table B): formula V amides
Procedure: (§1) Anti-inflammatory activity was determined using (1) the inhibition of carrageenin-induced foot edema test essentially described by Winter et al., Proc. Soc. Exp. Biol. and Med. 111, 554 (1962) as modified by Van Arman et al., J. Pharmacol. Exptl. Therap. 150, 328 (1965) and (2) a modification of the inhibition of adjuvant-induced arthritis test described by Pierson, J. Chronic Diseases 16, 863 (1963) and Glenn et al., Am. J. Vet. Res. 26, 1180 (1965).
(§2) The N-{2-,3- and 4-[R1 -(phenyl)-C(=X)]-phenyl-lower-alkyl}amines of formulas I, Ia and Ib of the invention have been tested in the carrageenin edema (CE) and adjuvant arthritis (AA) tests and found to have anti-inflammatory activity. For comparative purposes, data obtained in the carrageenin edema test on the reference compound (designated "Ref."), 4[(3-benzoylphenyl)methyl]morpholine, disclosed in French Patent 1,549,342, are also given. All data were obtained on oral administration.

[2] = test system: adjuvant-induced arthritis; assay: inhibition of adjuvant-induced arthritis test (A.A.); assay type: in vivo; details: oral; for A.A. percent inhibition (in brackets): corn oil vehicle; for A.A. percent inhibition (in parentheses): second experiment; for inhibition in vivo at 160 µmol/kg: dose 0.16 millimoles/kg; for A.A. percent inhibition (Table B): formula V amides
Procedure: as §1, §2

[3] = dose 0.08 millimoles/kg, read-out: A.A. percent inhibition
[4] = dose 0.324 millimoles/kg, (a) data obtained after 17 days on test and 9 medications
[5] = dose 0.005 millimoles/kg, read-out: A.A. percent inhibition
[6] = dose 0.02 millimoles/kg, read-out: A.A. percent inhibition
[7] = read-out: A.A. percent inhibition
[8] = dose 0.324 millimoles/kg, read-out: A.A. percent inhibition

| SMILES | inhibition in vivo at 4 µmol/kg [1] [%] | inhibition in vivo at 20 µmol/kg [1] [%] | inhibition in vivo at 80 µmol/kg ([1]; dose 0.08 millimoles/kg) [%] | inhibition in vivo at 324 µmol/kg ([1]; dose 0.324 millimoles/kg) [%] | other results |
| --- | --- | --- | --- | --- | --- |
| COc1ccc(C(=O)c2cccc(C(C)CN3CCCCC3CC3CCCCC3)c2)cc1 (centres unmarked) [Example 7, 2-cyclohexylmethyl-1-{2-[3-(4-methoxybenzoyl)phenyl]propyl}piperidine] | 0 | 22 | – | – | inhibition in vivo at 80 µmol/kg [2, 3]: 63% |
| CC(C(=O)N1CCC(CC2CCCCC2)CC1)c1cccc(C(=O)c2ccccc2)c1 (stereo not drawn) [Example 1L, 4-Cyclohexylmethyl-1-[α-(3-benzoylphenyl)propionyl]piperidine] | – | – | – | – | C.E. percent inhibition (Table B) ([1]; dose 0.08 millimoles/kg): 13%; C.E. percent inhibition (Table B, footnote a) [1, 4]: 31%; A.A. percent inhibition (Table B, footnote a) [2, 4]: 74% |
| CC(CN1CCCCC1CC1CCCCC1)c1cccc(C(=O)c2ccc(Cl)cc2)c1 (centres unmarked) [Example 20, 2-cyclohexylmethyl-1-{2-[3-(4-chlorobenzoyl)phenyl]propyl}piperidine] | 16 | 52 | – | – | inhibition in vivo at 5 µmol/kg [2, 5]: 63%; inhibition in vivo at 20 µmol/kg [2, 6]: 90%; toxicity ([2]; dose 0.08 millimoles/kg): Toxic |
| CC(CN1CCCCC1CC1CCCCC1)c1cccc(C(=O)c2ccccc2)c1.Cl (single isomer, unassigned) [14(a), 2-cyclohexylmethyl-1-[2-(3-benzoylphenyl)propyl]piperidine hydrochloride] | – | – | – | – | A.A. percent inhibition (in brackets) ([2]; dose 0.0013 millimoles/kg): 0%; A.A. percent inhibition (in parentheses) ([2]; dose 0.0013 millimoles/kg): 28%; inhibition in vivo at 1.3 µmol/kg ([2]; dose 0.0013 millimoles/kg, read-out: A.A. percent inhibition): 16%; A.A. percent inhibition (in brackets) ([2]; dose 0.005 millimoles/kg): 39%; A.A. percent inhibition (in parentheses) ([2]; dose 0.005 millimoles/kg): 46%; inhibition in vivo at 5 µmol/kg [2, 5]: 46%; A.A. percent inhibition (in brackets) ([2]; dose 0.02 millimoles/kg): 65%; A.A. percent inhibition (in parentheses) ([2]; dose 0.02 millimoles/kg): 87%; inhibition in vivo at 20 µmol/kg [2, 6]: 79% |
| CC(CN1CCCCC1CCCC1CCCCC1)c1cccc(C(=O)c2ccccc2)c1 (centres unmarked) [Example 7D, 2-(3-Cyclohexylpropyl)-1-[2-(3-benzoylphenyl)propyl]piperidine] | – | – | 37 | 49 | inhibition in vivo at 160 µmol/kg [2, 7]: 100% |
| CC(CN1CCOCC1)c1ccc(C(=O)c2ccccc2)cc1 (centres unmarked) [Example 24A, 4-[2-(4-benzoylphenyl)propyl]morpholine hydrochloride] | – | – | 44 | 56 | inhibition in vivo at 324 µmol/kg [2, 8]: 78% |
| CC(C(=O)N1CCN(C2CCCCC2)CC1)c1cccc(Cc2ccccc2)c1.Cl (stereo not drawn) [Example 25, 4-cyclohexyl-1-[α-(3-benzylphenyl)propionyl]piperazine hydrochloride] | – | – | – | – | C.E. percent inhibition (Table B) ([1]; dose 0.08 millimoles/kg): 0%; C.E. percent inhibition (Table B) ([1]; dose 0.324 millimoles/kg): 45%; A.A. percent inhibition (Table B) ([2]; dose 0.162 millimoles/kg): 79% |
| CC(CN1CCCCC1)c1cccc(C(=O)c2ccccc2)c1 (centres unmarked) [Example 14A, 1-[2-(3-Benzoylphenyl)propyl]piperidine hydrochloride] | – | – | 39 | 67 | inhibition in vivo at 80 µmol/kg [2, 3]: 49% |
| CC(CN1CCCCC1CC1CCCCC1)c1cccc(C(=O)c2ccccc2Cl)c1 (centres unmarked) [Example 20D, 2-Cyclohexylmethyl-1-{2-[3-(2-chlorobenzoyl)phenyl]propyl}piperidine] | 0 | 36 | – | – | inhibition in vivo at 5 µmol/kg [2, 5]: 35%; inhibition in vivo at 20 µmol/kg [2, 6]: 54%; inhibition in vivo at 80 µmol/kg [2, 3]: 79% |
| CC(CN1CCOCC1)c1cccc(C(=O)c2ccccc2)c1 (centres unmarked) [7H (base), 4-[2-(3-Benzoylphenyl)propyl]morpholine] | 29 | 44 | – | – | inhibition in vivo at 80 µmol/kg [2, 3]: 81% |
| CC(CN1CCCCC1CC1CCCCC1)c1cccc(C(=NO)c2ccccc2)c1 (centres unmarked) [Example 15, 2-cyclohexylmethyl-1-[2-(3-benzoylphenyl)propyl]piperidine oxime] | 16 | 43 | – | – | inhibition in vivo at 20 µmol/kg [2, 6]: 92%; inhibition in vivo at 80 µmol/kg [2, 3]: 91% |
| CC(CN1CCC2(CC1)OCCO2)c1ccc(C(=O)c2ccccc2)cc1.Cl (centres unmarked) [Example 24B, 8-[2-(4-benzoylphenyl)propyl]1,4-dioxa-8-azaspiro[4,5]decane hydrochloride] | – | – | 38 | 50 | inhibition in vivo at 80 µmol/kg [2, 3]: 30%; toxicity ([2]; dose 0.324 millimoles/kg): Toxic |
| CC(CN1CCCCC1CC1CCCCC1)c1cccc(C(C)(O)c2ccccc2)c1 (stereo not drawn) [Example 6, 2-cyclohexylmethyl-1-{2-[3-(α-hydroxy-α-methylbenzyl)phenyl]propyl}piperidine] | 14 | 5 | 28 | 55 | – |
| Cc1ccccc1C(=O)c1cccc(C(C)CN2CCCCC2CC2CCCCC2)c1 (centres unmarked) [Example 8, 2-cyclohexylmethyl-1-{2-[3-(2-methylbenzoyl)phenyl]propyl}piperidine] | 2 | 21 | 33 | 68 | – |
| NC(c1ccccc1)c1cccc(CCN2CCOCC2)c1 (stereo not drawn) [Example 16A, 4-{2-[3-(α-Aminobenzyl)phenyl]ethyl}morpholine dihydrochloride] | – | – | 27 | 39 | – |
| CC(CN1CCCCC1CCCC1CCCCC1)c1cccc(C(O)c2ccccc2)c1 (stereo not drawn) [Example 3E, 2-(3-Cyclohexylpropyl)-1-{2-[3-(α-hydroxybenzyl)phenyl]propyl}piperidine] | 14 | 34 | – | – | – |
| CC(CN1CCCC1CC1CCCCC1)c1cccc(C(=O)c2ccccc2)c1 (centres unmarked) [Example 7A, 2-Cyclohexylmethyl-1-[2-(3-benzoylphenyl)propyl]pyrrolidine] | – | – | 45 | 60 | inhibition in vivo at 160 µmol/kg [2, 7]: 90% |
| CC1CN(CC(C)c2cccc(C(=O)c3ccccc3)c2)CC(C)O1 (centres unmarked) [Example 7J, 2,6-Dimethyl-4-[2-(3-benzoylphenyl)propyl]morpholine cyclohexanesulfamate] | – | – | 62 | 66 | – |
| CC(C(=O)N1CCN(C2CCCCCC2)CC1)c1cccc(Cc2ccccc2)c1.Cl (stereo not drawn) [Example 25B, 4-Cycloheptyl-1-[α-(3-benzylphenyl)propionyl]piperazine hydrochloride] | – | – | – | – | C.E. percent inhibition (Table B) ([1]; dose 0.08 millimoles/kg): 25%; C.E. percent inhibition (Table B) ([1]; dose 0.324 millimoles/kg): 44%; A.A. percent inhibition (Table B) ([2]; dose 0.324 millimoles/kg): 78% |
| NC(c1ccccc1)c1cccc(CN2CCOCC2)c1 (stereo not drawn) [Example 16B, 4-{[3-(α-Aminobenzyl)phenyl]methyl}morpholine dihydrochloride monohydrate] | – | – | 0 | 36 | inhibition in vivo at 324 µmol/kg [2, 8]: 0% |
| O=C(c1ccccc1)c1cccc(CCN2CCOCC2)c1 [Example 1C, 4-[2-(3-Benzoylphenyl)ethyl]morpholine hydrochloride monohydrate] | – | – | 40 | 77 | – |
| O=C(c1ccccc1)c1cccc(CN2CCOCC2)c1 [Ref., 4[(3-benzoylphenyl)methyl]morpholine, reference compound] | – | – | 0 | 23 | – |
| Cc1ccc(C(O)c2cccc(C(C)CN3CCCCC3CC3CCCCC3)c2)cc1 (stereo not drawn) [Example 4, 2-cyclohexylmethyl-1-{2-[3-(α-hydroxy-4-methylbenzyl)phenyl]propyl}piperidine] | 0 | 1 | 18 | 72 | – |
| CC(CN1CCCCC1CC1CCCCC1)c1cccc(C(C)c2ccccc2)c1 (stereo not drawn) [Example 11, 2-cyclohexylmethyl-1-{2-[3-(α-methylbenzyl)phenyl]propyl}piperidine] | 0 | 15 | 29 | 64 | – |
| Cc1cccc(C(=O)c2cccc(C(C)CN3CCCCC3CC3CCCCC3)c2)c1 (centres unmarked) [Example 9, 2-cyclohexylmethyl-1-{2-[3-(3-methylbenzoyl)phenyl]propyl}piperidine] | 0 | 0 | 21 | 47 | – |
| CC(c1cccc(C(=O)c2ccccc2)c1)N1CCOCC1 (centres unmarked) [Example 21, 4-[1-(3-benzoylphenyl)ethyl]morpholine] | – | – | 32 | 46 | – |
